Source: PubChem BioAssay (NCI)
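Assay format: 96-well plates, 48-hour exposure. GI50: concentration for 50% inhibition of growth. TGI: concentration producing complete growth inhibition.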

Columns and labels:
Assay in all cases: NCI-60 cell line screen, 48 h
A549 NSCLC = tested on: A549 NSCLC
OVCAR-4 ovarian = tested on: OVCAR-4 ovarian
A498 renal = tested on: A498 renal
CCRF-CEM leukemia = tested on: CCRF-CEM leukemia
OVCAR-3 ovarian = tested on: OVCAR-3 ovarian
IGROV1 ovarian = tested on: IGROV1 ovarian
SN12C renal = tested on: SN12C renal
MOLT-4 leukemia = tested on: MOLT-4 leukemia
PC-3 prostate = tested on: PC-3 prostate
HT29 colon = tested on: HT29 colon
HCC-2998 colon = tested on: HCC-2998 colon

Row | Structure (SMILES) | TGI (A549 NSCLC) | GI50 (OVCAR-4 ovarian) | TGI (OVCAR-4 ovarian) | GI50 (A498 renal) | TGI (CCRF-CEM leukemia) | TGI (OVCAR-3 ovarian) | TGI (IGROV1 ovarian) | GI50 (SN12C renal) | TGI (SN12C renal) | TGI (MOLT-4 leukemia) | TGI (PC-3 prostate) | TGI (A498 renal) | TGI (HT29 colon) | TGI (HCC-2998 colon) | GI50 (A549 NSCLC) | GI50 (PC-3 prostate) | GI50 (CCRF-CEM leukemia) | GI50 (OVCAR-3 ovarian) | GI50 (MOLT-4 leukemia) | GI50 (HT29 colon)
1 | CCOC(=O)Nc1cc2c(c(N)n1)N=C(c1ccccc1)[C@H](C)N2 | > 100 µM | 16.2 µM | > 100 µM | < 0.0001 µM | 0.0464 µM | 0.016 µM | > 100 µM | < 0.0001 µM | > 100 µM | 14.5 µM |  |  |  |  |  |  |  |  |  | 
2 | Nc1ccc(N=Nc2ccc(-c3ccc(O)cc3)cc2)c2ccc(S(=O)(=O)O)cc12 | > 100 µM |  | > 100 µM |  | > 100 µM | > 100 µM | > 100 µM |  | > 100 µM | > 100 µM | > 100 µM | > 100 µM | > 100 µM |  |  |  |  |  |  | 
3 | COc1cc(N/N=C/C#N)cc(OC)c1OC | > 10 µM |  | > 10 µM |  | > 10 µM | > 10 µM | > 10 µM |  | > 10 µM | > 10 µM | > 10 µM | > 10 µM | > 10 µM | > 10 µM |  |  |  |  |  | 
4 | O=C(O)NCc1ccccc1 (tested in a mixture with another compound) | > 100 µM |  | > 95.8 µM |  | 51.7 µM | > 96.1 µM | > 100 µM |  | > 100 µM | 45.9 µM | > 66.4 µM | 85.3 µM | > 100 µM | 51.6 µM |  |  |  |  |  | 
5 | CC(=O)OC/C=C/Cn1ncc(=O)[nH]c1=O | > 100 µM |  |  |  |  | > 100 µM | > 100 µM |  | > 100 µM | > 100 µM | > 100 µM | > 100 µM | > 100 µM | > 100 µM |  |  |  |  |  | 
6 | CCCCCCCCCCCCCCCC(=O)OCC1CCCN2CCCCC12 (centres undefined) | > 100 µM |  | > 100 µM |  | > 100 µM | > 100 µM |  |  | > 100 µM | > 100 µM | > 100 µM | > 100 µM | > 100 µM | > 100 µM |  |  |  |  |  | 
7 | Oc1c2c(c3c4c1N=CC=4CCN=3)-c1c(Br)cc(Br)cc1CCN2 | 10.3 µM |  | 6.23 µM |  | 6.7 µM |  | 13.8 µM |  | 5.86 µM |  |  | 24.7 µM | 7.66 µM | 4.72 µM |  |  |  |  |  | 
8 | O=[N+]([O-])c1ccc2c(c1)Nc1c3ccccc3nc3cccc-2c13 | 15.9 µM |  | 11.4 µM |  | 6.19 µM | 3.8 µM | 15.4 µM |  | > 80 µM | 34.6 µM | 16.9 µM | > 100 µM | > 51.6 µM | 0.341 µM |  |  |  |  |  | 
9 | CC(C)OC(=O)C1=C(O)c2ccccc2S(=O)(=O)N1 | > 100 µM |  | > 100 µM |  | > 100 µM | > 100 µM | > 100 µM |  | > 100 µM | > 100 µM |  | > 100 µM | > 100 µM | > 100 µM |  |  |  |  |  | 
10 | Cc1cc2c(cc1C)[n+](=O)c(C#N)c(Cl)n2[O-] | 80.8 µM |  | 31.2 µM |  | 45.3 µM | 20.6 µM | 33.3 µM |  | 28.3 µM | 48.5 µM | > 100 µM | 39.5 µM | 19.7 µM | 23.7 µM |  |  |  |  |  | 
11 | CC[C@H](Nc1nc(N)nc(C)c1C#N)c1nc2cccc(NCc3ccc(C(=O)NO)cc3)c2c(=O)n1-c1ccccc1 | 5.43 µM | 2.01 µM | 7.52 µM | 1.04 µM | > 100 µM | 3.26 µM |  |  |  | > 100 µM | 3.3 µM | 2.42 µM | 4.88 µM |  | 2.35 µM | 0.905 µM | 0.679 µM | 1.2 µM | 2.34 µM | 1.82 µM
12 | Cc1ccc([N+](=O)[O-])cc1NC(=O)C(=O)C(C(=O)c1ccccc1F)C1OC(=O)c2ccccc21 (centres undefined) | > 100 µM |  | > 100 µM |  | > 100 µM |  | > 100 µM |  | > 100 µM | > 100 µM |  | > 100 µM | > 100 µM | 84.6 µM |  |  |  |  |  | 
13 | Cc1ccc(S(=O)(=O)N/N=c2\c(C)c(C3=NS(=O)(=O)c4cc(S(N)(=O)=O)c(Cl)cc4N3)oc3c(Cl)cc(Cl)cc23)cc1 | > 100 µM |  | > 100 µM |  | > 100 µM | > 100 µM | > 100 µM |  | > 100 µM | > 100 µM |  | > 100 µM | > 100 µM | > 100 µM |  |  |  |  |  | 
14 | Cc1ccc(C[P+]2(c3ccccc3)CCCCC2)cc1 | > 100 µM |  | > 100 µM |  | > 100 µM |  | > 100 µM |  | > 100 µM | > 100 µM |  | > 100 µM | > 100 µM | 60.8 µM |  |  |  |  |  | 
15 | C=C1CC[C@@H](Br)C(C)(C)[C@]12CCC(C)(O)C(Cl)C2 (some centres undefined) | 45.2 µM |  |  |  | 47.9 µM | 35.8 µM | 44 µM |  | 30 µM | 38.3 µM |  | 44.7 µM | 33.4 µM | 38.2 µM |  |  |  |  |  | 
16 | N=c1nc2n(cc1F)[C@@H]1O[C@H](CO)[C@@H](O)[C@@H]1O2 | > 100 µM |  | > 100 µM |  | > 12.3 µM | > 100 µM | > 92.7 µM |  | > 100 µM | 18.9 µM | > 100 µM | > 100 µM | > 100 µM | > 100 µM |  |  |  |  |  | 
17 | CC(=O)O[C@H]1CC[C@@]2(C)C(=CC[C@@H]3[C@@H]2CC[C@]2(C)Nc4c(cnn4S(C)(=O)=O)C[C@@H]32)C1 |  |  |  |  | > 100 µM | > 100 µM | > 100 µM |  | > 100 µM | 47.4 µM | > 100 µM | > 100 µM | 57 µM | > 100 µM |  |  |  |  |  | 
18 | O=C1Nc2ccccc2S/C1=C\c1cccc(C(F)(F)F)c1 | > 100 µM |  | > 100 µM |  | > 100 µM | > 100 µM | > 100 µM |  | > 100 µM | > 100 µM | > 100 µM | > 100 µM | > 100 µM |  |  |  |  |  |  | 
19 | O=C(N/C(=C\c1cccc([N+](=O)[O-])c1)c1nc2[nH]c(=S)[nH]c(=O)c2[nH]1)c1ccccc1 | > 100 µM |  | > 100 µM |  | > 100 µM | > 100 µM | > 100 µM |  | > 100 µM | > 100 µM |  | > 100 µM | > 100 µM | > 100 µM |  |  |  |  |  | 
20 | NC(=S)Nc1cc(Cl)ccc1Cl | > 100 µM |  | > 100 µM |  | > 100 µM | > 100 µM | > 100 µM |  | > 100 µM | > 100 µM |  | > 100 µM | > 100 µM | > 100 µM |  |  |  |  |  | 
21 | O=C(O)CCSCc1ccc(I)cc1 | > 100 µM |  | > 100 µM |  | > 100 µM | > 100 µM | > 100 µM |  | > 100 µM | > 100 µM | > 100 µM | > 100 µM | > 100 µM | > 100 µM |  |  |  |  |  | 
22 | O=C1Nc2ccccc2S/C1=C\c1ccccc1C(F)(F)F | > 100 µM |  | 49.4 µM |  | > 100 µM | > 100 µM | > 100 µM |  | > 100 µM | > 100 µM | > 100 µM |  | > 100 µM |  |  |  |  |  |  | 
23 | CCC1CN2CCC1CC2 (centres undefined) | > 100 µM |  | > 100 µM |  | > 100 µM | > 100 µM | > 100 µM |  | > 100 µM | > 100 µM |  | > 100 µM | > 100 µM | > 100 µM |  |  |  |  |  | 
